# Assay results taken from patent US20080064040A1, “Monitoring gene silencing and annotating gene function in living cells” (Odyssey Thera, Inc., priority 2003, published 2008).
# Test system: phosphorylation of the ERK1 and ERK2 protein kinases
# Assay: Phospho-ERK (T202/Tyr204) immunofluorescence in EGF-treated HEK 293T cells
# Type: cell-based, human
# Conditions: EGF vs unstimulated cells, FIG. 11B
# Method: Cells are transfected with a collection of siRNAs, and cultured for 48 hours before fixing. Fixed cells are probed with antibodies that specifically recognize the MAPK/ERK protein kinases only when they are phosphorylated on Threonine 202 and Tyrosine 204 in the activation loop. […] Changes in the level and sub-cellular localization of phosphorylated proteins following treatment with an annotation reagent (here siRNA) indicates a functional connection between the annotation reagent and the target of interest. […] Here, 24 individual siRNA pools were transfected into human HEK cells, and their effects on the phosphorylation of the ERK1 and ERK2 protein kinases was assessed by immunofluorescence analysis.
# Human HEK 293T cells were plated at 12,000 cells/well, and transfected with 40 ng of siRNA pools targeting the indicated proteins using Lipofectamine 2000 (Invitrogen, Carlsbad Calif.). 24 hours after transfection, cells were cultured in 0.25% serum for 24 hours, then treated with EGF (Sigma; 100 ng/ml) for 5 minutes prior to fixation. For immunofluorescence, cells were rinsed with PBS, fixed with 4% formaldehyde in PBS, and permeabilized using 0.25% Triton X-100. Non-specific immunoreactivity was blocked by incubating cells with 3% BSA in PBS. […] Automated fluorescence image acquisition was carried out using Discovery-1 (Universal Imaging/Molecular Devices).
substance,measurement,value
"EGF: epidermal growth factor (Sigma), stimulus for ERK phosphorylation (NSDSECPLSHDGYCLHDGVCMYIEALDKYACNCVVGYIGERCQYRDLKWWELR; UniProt P01133 971-1023, looked up)",level of phosphorylated ERK after growth factor treatment,large increase in phosphorylated ERK
